This is an account of results in patent US20240165094A1, “METHODS AND COMPOSITIONS FOR TREATING MELANOMA” (INSTITUT NATIONAL DE LA SANTÉ ET DE LA RECHERCHE MÉDICALE, priority 2021, published 2024).

Experiment [1] relates to M238R cells. Nature of the experiment: Viability assay (crystal violet staining of attached cells), BRAFi-resistant cells. The following applies: 3 days. It counts as cell-based, human. The method, then:
FIG. 1. Nintedanib sensitizes melanoma cells to BRAFi/MEKi therapy and prevents BRAFi/MEKi-driven ECM remodeling. (A) BRAFi-resistant M238R cells were treated with vehicle (Ctrl), Nintedanib (2 μM), Vemurafenib and Trametinib (BRAFi/MEKi, 5 μM) or Vemurafenib/Trametinib (5 μM) plus Nintedanib (2 μM) for 3 days. Cell viability was assessed by crystal violet staining of attached cells. (B) BRAFi-sensitive parental M238P cells were treated with vehicle (Ctrl), Nintedanib (2 μM) Vemurafenib and Trametinib (BRAFi/MEKi, 1 μM) or Vemurafenib/Trametinib (1 μM) plus Nintedanib (2 μM) for 3 days. Cell viability was assessed by crystal violet staining of attached cells. Paired Student t-test has been used for statistical analysis. ****P≤0.0001. Data is represented as mean ±SE from a triplicate representative of at least 3 independent experiments.
The isogenic pair of Vemurafenib-sensitive and -resistant human BRAF-mutated melanoma cells M238 was provided by R. Lo (Nazarian et al., 2010). YUMM1.7 mouse melanoma cells were a kind gift from M. Bosenberg (Meeth et al., 2016). […]
After the indicated treatments, cells were stained with 0.04% crystal violet, 20% ethanol in PBS for 30 min. […] The crystal violet dye is solubilized by 10% acetic acid in PBS and measured by absorbance at 595 nm.

The test system of experiment [2] is M238P cells. The experiment can be described thus: Viability assay (crystal violet staining of attached cells), BRAFi-sensitive parental cells. Format: cell-based, human. The following applies: 3 days.
Method: Melanoma cells were cultured in Dulbecco's modified Eagle medium (DMEM) supplemented with 7% FBS (Hyclone) and 1% penicillin/streptomycin. Resistant cells were continuously exposed to 1 μM of Vemurafenib. […] BRAFi (PLX4032, Vemurafenib), MEKi (GSK1120212, Trametinib) and Nintedanib (BIBF1120) were from Selleckem.
Experiment [3] has as its system M238R cells. Nature of the experiment: Real-time quantitative PCR gene expression in BRAFi-resistant cells. Format: cell-based, human. The following applies: data not shown. The method, then:
(§1) Total RNA was extracted from tumors and cell samples with the miRNeasy Mini Kit (Qiagen) according to the manufacturer's instructions.
(§2) 1 μg of extracted RNA from cells was reverse transcribed into cDNA using the Multiscribe reverse transcriptase kit provided by Applied Biosystems. Primers were designed using PrimerBank or adopted from published studies. Gene expression levels were measured using Platinum SYBR Green qPCR Supermix (Fisher Scientific) and Step One thermocycler (Applied Biosystem). Results from qPCR were normalized using the reference gene RPL32 and relative gene expression was quantified with the ΔΔCt method. Heatmaps describing gene expression fold changes were prepared using MeV software. cDNAs from tumors were prepared from 100 ng of RNA using Fluidigm Reverse Transcription Master Mix (Fluidigm PN 100-647297). Following a pre-amplification step (Fluidigm® PreAmp Master Mix and DELTAgene™ Assay kits) and exonuclease I treatment, samples diluted in Eva-Green® Supermix with Low ROX were loaded with primer reaction mixes in 96.96 Dynamic Array™ IFCs. Gene expression was then assessed on a Fluidigm BioMark HD instrument. Data were analyzed with real-time PCR analysis software (Fluidigm Corporation), and presented as relative gene expression according to the ΔΔCt method. Heat maps depicting fold changes of gene expression were prepared using MeV software.

Experiment [4] deals with M238P melanoma cells. Nature of the experiment: Real-time quantitative PCR gene expression in BRAFi-sensitive cells. Format: cell-based, human. The following applies: data not shown. The method, then: as §1, §2
The test system of experiment [5] is YUMM1.7 Braf-mutant melanoma. Nature of the experiment: Syngenic model of murine YUMM1.7 Braf-mutant melanoma: tumor growth, relapse, survival. Format: in vivo, mouse. The source says:
FIG. 2. Nintedanib enhances MAPK-targeted therapy efficacy, delays tumor relapse, improves mice survival and normalizes the pro-fibrotic stromal reaction. Kaplan-Meier survival curves of mice treated with vehicle, Nintedanib, MAPK-targeted therapy (BRAFi+MEKi) or MAPK-targeted therapy plus Nintedanib. Log rank (Mantel-Cox) statistical test was used for MAPK-targeted therapy vs MAPK targeted therapy/Nintedanib. ****p<0.0001.
FIG. 4. Nintedanib, but not Pirfenidone, enhances MAPK-targeted therapy efficacy and delays tumor relapse. Mouse YUMM1.7 cells were injected s.c. into syngeneic C57BL/6 mice. When tumor volume reached 100 mm3, mice were administered vehicle, BRAFi+MEKi combination, Nintedanib, Pirfenidone or the triple combinations of BRAFi+MEKi and Nintedanib or BRAFi+MEKi and Pirfenidone. Representative median graphics show tumor growth following treatment (n=3 mice per group). Treatment: Oral gavage 3 times per week. Vemurafenib (BRAFi): 30 mg/kg; Trametinib (MEKi): 0.3 mg/kg; Nintedanib: 50 mg/kg; Pirfenidone: 100 mg/kg. Oral gavage 3 times per week.
Mouse experiments were carried out according to the Institutional Animal Care and the local ethical committee. 4×105 YUMNI1.7 cells were injected in both flanks of C57BL/6 mice. Tumors were measured with caliper and treatments were started when the tumors reached a volume of 0.1 cm3, after randomization of mice into control and test groups. Vemurafenib (30 mg/kg), Trametinib (0.3 mg/kg), and Nintedanib (50 mg/kg) were administered by oral gavage three times per week. Control mice were treated with vehicle only. Animals were sacrificed when the tumors reached a volume of 1 cm3. After animal sacrifice, tumors were dissected, weighed and snap-frozen in liquid nitrogen for RNA or protein extraction and immunofluorescence analysis (embedded in OCT from Tissue-Tek). Tumors for picrosirius red staining were fixed in formalin.

Experiment [6] relates to YUMM 1.7 tumors. Nature of the experiment: ECM remodeling in YUMM1.7 tumors (picrosirius red collagen staining, qPCR of ECM, myofibroblast and pro-fibrotic markers). The following applies: co-administration of Nintedanib with MAPKi; data not shown. Format: in vivo, mouse. Here is the method: as §2, with “Heatmaps describing gene expression fold changes were prepared using MeV software. cDNAs from tumors were prepared from 100 ng of RNA using Fluidigm Reverse Transcription Master Mix (Fluidigm PN 100-647297).” left out, “[…])” for “DELTAgene™ Assay kits)”, “ArrayTM” for “Array™”, “software. Collagen in paraffin-embedded tumors was stained with picrosirius red using standard protocols as described (Girard et al., 2020). Tumor sections were analyzed by polarized light microscopy. Images were acquired under polarized illumination using a light transmission microscope (Zeiss PALM, at 10× magnification). […]” for “software.”
On the technique in general: Real-time PCR tracks product formation cycle by cycle.

Turning to `COC(=O)c1ccc2c(c1)NC(=O)/C2=C(\Nc1ccc(N(C)C(=O)CN2CCN(C)CC2)cc1)c1ccccc1` [Nintedanib], the “cell survival (viability)” value in experiment [1] (BRAFi-resistant M238R cells, Nintedanib alone (2 μM)) was “no effect”. Moreover, the “sensitivity to BRAF and MEK co-inhibition (cell viability)” value in experiment [1] (M238R cells, Nintedanib 2 μM plus Vemurafenib/Trametinib 5 μM) is “restored sensitivity”. The “cell survival (viability)” value in experiment [2] (BRAFi-sensitive M238P cells, Nintedanib alone (2 μM)) is given as “no effect”. For the same molecule, in experiment [2] (M238P cells, Nintedanib 2 μM plus Vemurafenib/Trametinib 1 μM), the “effect on the inhibitory effect of BRAFi plus MEKi on cell viability” value is listed as “potentiated significantly the inhibitory effect”. The “ECM and fibrotic-like signature” value in experiment [3] (Nintedanib at two different doses) is “reverted”. The PDL1 expression entry in experiment [3] was “reduced”. The “BRAFi-induced ECM-related signature and myofibroblast markers such as ACTA2, MYL9 and LOXL2” value in experiment [4] was “strongly attenuated”. Further, in experiment [4] (under BRAFi), the “differentiation marker MITF expression” value was “prevented the downregulation”; the “gene expression of phenotypic markers such as PDL1 and NGFR” value is “reduced”. For the same molecule, in experiment [5] (BRAFi/MEKi-treated YUMM1.7 melanoma, n=3, Nintedanib 50 mg/kg or Pirfenidone 100 mg/kg added to Vemurafenib 30 mg/kg + Trametinib 0.3 mg/kg), the “effect on MAPK-targeted therapy efficacy and tumor relapse” value is “enhances MAPK-targeted therapy efficacy and prevents tumor relapse”. In addition, the anti-melanoma effect entry in experiment [5] (YUMM1.7 s.c. in C57BL/6 mice, Nintedanib 50 mg/kg alone, oral gavage three times per week) was “did not display any anti-melanoma effect”. Moreover, in experiment [5] (YUMM1.7 s.c. in C57BL/6 mice, oral gavage three times per week), the tumor growth entry was “slightly slowing down tumor growth but not triggering tumor volume decrease”. In addition, in experiment [6], the “MAPKi-induced ECM remodeling responses in tumors” value is recorded as “suppressed”.
